Experimental data reported in patent publication US20130064812A1, “COMBINATION THERAPIES FOR HEMATOLOGIC MALIGNANCIES” (Gilead Calistoga LLC, priority 2011, published 2013).
“Also recorded” adds a separate entry of the source. Where two headings read alike, the source gives them in different places.

Key:
[1] = tested on: LB and INA-6 MM cells with BMSCs; test: Paracrine MM cell growth, cytokine secretion and signaling with BMSCs; format: cell-based, human
Procedure: MM cells (2×10^4 cells/well) were cultured for 48 h in BMSC coated 96-well plates (Costar, Cambridge, Mass.), in the presence or absence of drug. DNA synthesis was measured by [3H]-thymidine (Perkin-Elmer, Boston, Mass.) uptake, with [3H]-thymidine (0.5μ Ci/well) added during the last 8 h of 48 h cultures. All experiments were performed in quadruplicate.
Cytokine secretion by human BMSCs cocultured with MM cells was assessed by ELISA. […] After 48 h, supernatants were harvested and stored at −80° C. Cytokines were measured using Duo set ELISA Development Kits (R&D Systems, Minneapolis, Minn.). All measurements were carried out in triplicate.
The cytokine levels in culture supernatants were assessed using Proteome Profiler Antibody Arrays Panel A (R&D Systems, Minneapolis, Minn.), Supernatants from co-cultures with BMSCs were incubated for 4 hours with membranes arrayed with Abs against 37 cytokines, according to manufacturer's instructions.
DNA synthesis was determined by [3H]-thymidine incorporation. Data represent means (±SD) of triplicate cultures.
Error bars indicate SD (±).
INA-6 cells cultured with or without BMSCs were treated with compound for 48 h. Total cell lysates were subjected to immunoblotting using indicated antibodies, FIG. 34F. Actin was used as a loading control.

CLL cells = test: BH3 profiling (mitochondrial depolarization) of CLL cells; format: cell-based, human; settings: 24 hours; p=0.075
Procedure: CLL patient peripheral blood, bone marrow, and lymph node samples were analyzed by either the plate-based fluorimetry or FACS method. Briefly, PBMCs from CLL patients were made into single cell suspensions and gently permeabilized using digitonin (0.002%). For the fluorimtery-based method, 100 μM JC-1 (Invitrogen) was added at this time and cells were then loaded onto a 384-well plate, with individual wells containing individual BH3-only peptides. The JC1-BH3 assays were then conducted in triplicate on a Tecan Safire 2 with […] and Em 590+/−20 nm with a three-hour time course. For the FACS-based method, single cell suspensions from CLL patient PBMCs were stained using human Fc Block (BD Pharmingen) followed by anti-CD19-V450 (BD Pharmingen) and anti-CXCR4-APC (BD Pharmingen). […] JC-1 was measured from the 488-nm laser using a 530/30-nm filter (FITC) and a 585/42-nm filter (PE), and the degree of mitochondrial depolarization was calculated using the surrogate of the change in the median of PE signal. The mitochondrial depolarization reported in response to each BH3 peptide is normalized relative to the median percentage change in PE fluorescence of the JC-1 dye with a negative control, dimethyl sulfoxide (DMSO) (0%) and a positive control, the mitochondrial uncoupling agent carbonyl cyanide 4-(trifluoromethoxy)-phenylhydrazone (FCCP) (100%). […]

[2] = tested on: patient chronic lymphocytic leukemia (CLL) cells; test: Apoptosis of patient CLL cells (Annexin V-FITC/PI); format: cell-based, human
Procedure: Peripheral blood was obtained from patients with B-CLL through the CLL Research Consortium from Ohio State University. Primary CD19-positive cells were isolated using Rosette-Sep (StemCell Technologies). Cells were maintained in RPMI 1640 (Invitrogen) supplemented with 10% heat-inactivated fetal bovine serum, 2 mmol/L L-glutamine, and penicillin (100 units/mL)/streptomycin (100 μg/mL; Invitrogen) at 37° C., 5% CO2, and high humidity. […] After incubation for 10 minutes at room temperature in a light-protected area, the specimens were quantified by flow cytometry on a FACScan™ (Becton Dickinson).

[3] = tested on: T47D and HS-578T cell lines; test: Proliferation of breast cancer cell lines (AlamarBlue); format: cell-based; settings: 48 hrs and 72 hrs
Procedure: T47D and HS-578T cell lines were grown in the presence of serum plus the indicated concentrations of the compound of formula I. Proliferation was measured in triplicate wells by AlamarBlue® assay (Invitrogen) 96-well plates.

AKT and ERK pathways = test: AKT and ERK pathway phosphorylation in MM cells (immunoblot); format: cell-based, human
Description: Whole-cell lysates were subjected to sodium dodecyl sulfate-polyacrylamide gel electrophoresis (SDS-PAGE) separation, transferred to Pure Nitrocellulose membranes (Bio-Rad Laboratories, Hercules, Calif.), and immunoblotted with anti-AKT, phospho(p)-AKT (Ser473, Thr 308), ERK1/2, P-ERK1/2, P-PDK1, STAT, P-STAT, P-FKRHL, P-70S6K, LC3, and PI3K/p110α Abs (Cell Signaling Danvers, Mass.); anti-p110β, PI3K/p110δ, Glyceraldehyde 3-phosphate dehydrogenase (GAPDH), α-tubulin, and actin Abs (Santa Cruz Biotechnology, CA); and anti-p110γ Ab (Alexis, San Diego, Calif.): and anti-LC3 Ab (Abgent, San Diego, Calif.).
Actin Ab was used as a loading control. […] Whole cell lysates were subjected to immunoblotting using AKT, P-AKT (Ser473 and Thr308), ERK1/2, P-ERK1/2, P-PDK1, and P-FKRHL antibodies. α-tubulin is used as a loading control.

CLL = test: Previous single-agent study in patients with CLL; format: in vivo, human; settings: single-agent therapy
DLBCL cell lines = test: pAKT in DLBCL cell lines; format: cell-based
[4] = listed as compound of formula I

CC[C@H](Nc1ncnc2[nH]cnc12)c1nc2cccc(F)c2c(=O)n1-c1ccccc1 [Compound I, 5-fluoro-3-phenyl-2-[1-(9H-purin-6-ylamino)-propyl]-3H-quinazolin-4-one]
MM cell growth and cytokine secretion induced by BMSCs ([1]; 48 h): inhibited growth and cytokine secretion
phosphorylation of AKT and ERK induced by BMSCs ([1]; INA-6, 48 h): inhibited
mitochondrial priming of stroma-exposed CLL cells (CLL cells): increased mitochondrial priming
apoptosis of CLL cells from poor prognosis patients [2]: induced apoptosis was seen
apoptosis of CLL cells from refractory/relapsed patients [2]: induced apoptosis was also seen to be effective
apoptosis of CLL patient cells ([2]; 96 hours): dose-dependent cytotoxicity; also recorded: results in apoptosis and the result appears to be dose-dependent
apoptosis of CLL cells from poor prognosis patients ([2]; listed as compound I): increased apoptosis
apoptosis of CLL cells from refractory/relapsed patients [2, 4]: increased apoptosis
proliferation of breast cancer cell lines [3]: reduces cellular proliferation of two breast cancer cell lines
proliferation of breast cancer cell lines [3, 4]: inhibits proliferation of breast cancer cell lines
phosphorylation of PDK-1 and FKHRL (AKT and ERK pathways; INA-6 and LB, 0-6 hours): significantly inhibited phosphorylation of upstream PDK-1 and downstream FKHRL
phosphorylation of AKT or ERK, MM.1S cells (AKT and ERK pathways; low expression of P110δ, 0-5.0 μM, 6 hours): did not affect phosphorylation of AKT or ERK
phosphorylation of AKT and ERK1/2, INA-6 cells (AKT and ERK pathways; p110δ positive, 12 h): significantly blocked phosphorylation of AKT and ERK1/2
fraction of patients with CLL with lymphocytosis (CLL): ⅔
lymphocyte redistribution (CLL): transient lymphocytosis in patients with CLL
pAKT levels in DLBCL cell lines (DLBCL cell lines): reduces pAKT levels in several DLBCL cell lines
